Series [1] deals with isolated guinea pig ileum (carbachol-induced contractions). Nature of the series: Block of carbachol-induced contraction of the isolated guinea-pig ileum. To be noted: block of contractions of isolated guinea pig ileum induced by carbachol. On the procedure: (§1) Compounds according to formula I were tested for their ability to block contractions of the isolated guinea pig ileum induced by KCl, carbachol, or histamine at a concentration of 10^-7 M. Ileum preparations were prepared according to standard methodology. The concentrations shown are the minimum required to show activity.

For series [2], the system named is isolated guinea pig ileum (histamine-induced contractions). Nature of the series: Block of histamine-induced contraction of the isolated guinea-pig ileum. To be noted: for minimal effective concentration: Cavia porcellus, isolated guinea pig ileum, histamine 10^-7 M, read-out: Effect on Histamine: minimum concentration required to show activity; for Effect on Histamine: block of contractions of isolated guinea pig ileum induced by histamine at 10^-7 M. On the procedure:
(§2) The compound of Example 2 was found in low concentrations to inhibit contractions of the guinea-pig isolated ileum and rat isolated stomach strip caused by histamine and 5-hydroxytryptamine respectively. […] Concomitantly, the depressor effects of histamine were blocked, as were the pressor effects of 5-hydroxytryptamine for over 30 minutes. The pressor effects of 5-hydroxytryptamine in anaesthetised and pithed rats were inhibited by intravenous doses of 0.3-1.0 mg/kg body weight. Slightly higher doses reduced the bradycardia and the depressor response (the Bezold-Jarisch reflex mediated by 5-HT3 receptors) to 5-hydroxytryptamine in anaesthetised rats. The drug inhibited oedema in the rat paw caused by intraplantar 5-hydroxytryptamine. […] In mice it inhibited diarrhoea caused by L-5-hydroxytryptophan. In guinea pigs, intravenous doses of 0.03 mg/kg and above reduced the bronchoconstrictor effects of histamine and 5-hydroxytryptamine.
as §1

The subject of series [3] is rat isolated stomach strip (5-hydroxytryptamine-induced contractions). Nature of the series: Contractions of rat isolated stomach strip caused by 5-hydroxytryptamine. On the procedure:
as §2

The subject of series [4] is arterial blood pressure and heart rate. The series is described as follows: Arterial blood pressure, heart rate and pressor responses to noradrenaline, sympathetic nerve stimulation and tyramine after intravenous injection into rats. The series is classed as in vivo, rat. Conditions: for minimal effective dose: intravenous.
For series [5] the test system is unchanged. The series is described as follows: Arterial blood pressure, heart rate and pressor responses to noradrenaline, sympathetic nerve stimulation and tyramine after intravenous injection into cats. The series is classed as in vivo, cat.
For series [6], the system named is pressor effects of 5-hydroxytryptamine. The series is described as follows: Pressor effects of 5-hydroxytryptamine in rats. The format is in vivo, rat. Conditions: for minimal effective dose: rat, intravenous, read-out: Intravenous dose depressing/reducing the pressor responses to 5-hydroxytryptamine. How it is done: as §2
(§3) In cats, the effects of the ganglion stimulant McNeil -A-343 and histamine were reduced. Following intravenous injection into guinea-pigs, […] reduced histamine and 5-hydroxytryptamine induced broncho-constriction. Concentrations of 1 μg/ml or greater relaxed the isolated rat uterus in vitro.
(§4) The compound of Example 4 when injected into rats at intravenous doses of 0.3 mg/kg or greater reduced the pressor effects of 5-hydroxytryptamine and also the depressor effects of histamine. In cats, the effect of histamine was reduced after these doses also.

Series [7] has the same test system. The series is described as follows: Pressor effects of 5-hydroxytryptamine in cats. The format is in vivo, cat. Conditions: intravenous 0.1 mg/kg or greater. On the procedure: as §2
The subject of series [8] is depressor effects of histamine. Nature of the series: Depressor effects of histamine in rats. The series is classed as in vivo, rat. On the procedure: as §2, §4
The test system of series [9] is depressor effects of histamine. The series is described as follows: Effects of histamine in cats. The series is classed as in vivo, cat. Conditions: intravenous. On the procedure:
as §2, §3, §4

Series [10] deals with 5-HT3 receptors (Bezold-Jarisch reflex). Nature of the series: Bradycardia and depressor response (Bezold-Jarisch reflex) to 5-hydroxytryptamine in anaesthetised rats. To be noted: doses slightly higher than 0.3-1.0 mg/kg i.v. The series is classed as in vivo, rat. How it is done:
as §2

Series [11] concerns rat paw oedema caused by 5-hydroxytryptamine. The series is described as follows: Oedema in the rat paw caused by intraplantar 5-hydroxytryptamine. The series is classed as in vivo. On the procedure:
as §2

In series [12] the test system is diarrhoea caused by L-5-hydroxytryptophan. Nature of the series: Diarrhoea caused by L-5-hydroxytryptophan in mice. The format is in vivo, mouse. How it is done: as §2
For series [13], the system named is bronchoconstrictor effects of histamine and 5-hydroxytryptamine. Nature of the series: Histamine and 5-hydroxytryptamine induced bronchoconstriction in guinea pigs. Conditions: Cavia porcellus, intravenous, read-out: Intravenous dose reducing histamine and 5-hydroxytryptamine bronchoconstriction. The series is classed as in vivo, guinea pig. How it is done: as §2, §3, §4
(§5) Thus doses of 1 mg/kg given intraperitoneally attenuated the facilitation of spinal reflex activity caused by p-chloroamphetamine, and also the facilitation of spinal reflexes induced by fenfluramine in spinal and decerebrate rats. […] The drug in doses of 10 and 20 mg/kg intraperitoneally and in doses of 20 mg/kg by mouth attenuated morphine-induced catalepsy. We conclude therefore that this drug is an orally active drug with central actions, particularly affecting serotonergic mechanisms, but has no effect in vitro (Table 1). […] Thus it was found after intravenous doses of 0.03 mg/kg to reduce histamine and 5-hydroxytryptamine bronchoconstriction in the guinea pig.

In series [14] the test system is central nervous system (spinal flexor reflex). The series is described as follows: Spinal flexor reflex in the rat. Conditions: mianserin in low doses. The series is classed as in vivo.
Series [15] deals with central nervous system (morphine induced catalepsy). The series is described as follows: Morphine induced catalepsy in the rat. Conditions: rat; mianserin in low doses. The series is classed as in vivo. On the procedure:
as §5

Series [16] concerns central nervous system (L-5-hydroxytryptophan-induced head twitch). The series is described as follows: L-5-hydroxytryptophan-induced head twitch in the mouse. To be noted: mianserin in low doses. The series is classed as in vivo.
Series [17] has as its system conscious cats. Nature of the series: Behavioural changes and acute toxicity in the cat. The format is in vivo.
The nature of series [18]: Penetration into the central nervous system. The format is in vivo. Conditions: concluded from four CNS test situations.
Series [19] deals with isolated guinea pig ileum (KCl-induced contractions). The series is described as follows: Block of KCl-induced contraction of the isolated guinea-pig ileum. To be noted: block of contractions of isolated guinea pig ileum induced by KCl. On the procedure: as §1
In series [20] the test system is effects of the ganglion stimulant McNeil -A-343. The series is described as follows: Effects of the ganglion stimulant McNeil-A-343 in cats. The format is in vivo, cat. How it is done: as §3
Series [21] concerns isolated rat uterus. Nature of the series: Isolated rat uterus in vitro.
Series [22] concerns arterial blood pressure and heart rate. The series is described as follows: Arterial blood pressure and heart rate in guinea pigs after intravenous doses. The series is classed as in vivo, guinea pig. Conditions: intravenous 0.01 mg/kg or greater.
[23] abbreviates: rats, intravenous 0.1 mg/kg or greater.
[24] abbreviates: intravenous 0.1 mg/kg or greater.

The text below walks through data of patent US5049637A, “1,2,3,4,10,14b-hexahydrodibenzo[c,f]pyrazino-[1,2-a]azepino derivatives and 10-aza, 10-oxa and 10-thia analogues” (Monash University, priority 1987, dated 1991).

Structures can show the parent of a compound that is named as a salt.

For the molecule `N=C(N)N1CCN2c3ccccc3Cc3ccccc3C2C1` (stereo not shown) [Example 2, 2-Carboxamidino-1,2,3,4,10,14b-hexahydrodibenzo [c,f]pyrazino[1,2-a]azepineHydrochloride], the “Effect on Carbachol” value in series [1] is recorded as “- (no effect)”. The minimal effective concentration in series [2] came out at 0.01 µM. Also, the “Effect on Histamine” value in series [2] is “++”. The “Nature of the antagonism to histamine” value in series [2] (guinea-pig isolated ileum, relatively resistant to washing) was “persistent and non-competitive”. In series [2] (low concentrations), the “Contractions of the guinea-pig isolated ileum caused by histamine” value is recorded as “inhibit”. Further, the “Contractions of rat isolated stomach strip caused by 5-hydroxytryptamine” value in series [3] (low concentrations) was “inhibit”. Further, the “Nature of the antagonism to 5-hydroxytryptamine” value in series [3] (rat isolated stomach strip, relatively resistant to washing) was “persistent and non-competitive”. Further, the minimal effective dose was not below 0.1 mg/kg in series [4] (Rattus norvegicus, rats, read-out: Intravenous dose causing long-lasting rises in arterial blood pressure and heart rate); not below 0.1 mg/kg in series [5] (Felis catus, intravenous, read-out: Intravenous dose causing long-lasting rises in arterial blood pressure and heart rate); not below 0.03 mg/kg in [13]. In addition, the “Pressor responses of the indirectly acting sympathomimetic agent tyramine” value in [4] (setting [23]) and in series [5] (setting [24]) was “blockade” in each case. In addition, the “Pressor responses to noradrenaline and sympathetic nerve stimulation” value in series [4] (setting [23]) and in series [5] (setting [24]) was “potentiation” each time. In addition, the “Duration of block of the pressor effects of 5-hydroxytryptamine” value in series [6] (setting [23]) and in [7] was “over 30 minutes” each time. Besides, the “Depressor effects of histamine” value in [8] (setting [24]) is reported as “blocked”. Further, the “Effects of histamine (depressor) in cats” value in series [9] is given as “blocked”. Further, the “Bradycardia and depressor response (Bezold-Jarisch reflex) to 5-hydroxytryptamine” value in series [10] was “reduced”. In addition, the “Oedema in the rat paw caused by intraplantar 5-hydroxytryptamine” value in series [11] (oral and subcutaneous) is reported as “inhibited”. In addition, the “Oral absorption indicated by ratio of oral to subcutaneous dose” value in [11] (rat paw oedema) is “relatively good oral absorption”. Moreover, in series [12], the “Diarrhoea caused by L-5-hydroxytryptophan” value is recorded as “inhibited”. In addition, the “Action in spinal flexor reflex test” value in [14] is on record as “failed to demonstrate any inhibitory or other actions”. Besides, in series [15], the “Action in morphine induced catalepsy test” value is “failed to demonstrate any inhibitory or other actions”. In series [16], the “Action in L-5-hydroxytryptophan-induced head twitch test” value was “failed to demonstrate any inhibitory or other actions”. Besides, the “Action on the central nervous system: behavioural changes in the cat” value in [17] (cat) is reported as “failed to demonstrate any inhibitory or other actions”. The “Overt behavioural changes or acute toxicity” value in series [17] (conscious cats, relatively large subcutaneous doses) is “No overt behavioural changes or acute toxicity”. Besides, in series [18], the “Penetration into the central nervous system” value is listed as “does not penetrate into the central nervous system”.

For the molecule `c1ccc2c(c1)Cc1ccccc1N1CCN(C3=NCCN3)CC21` (stereo not shown) [Example 3, 2-(2-Imidazolino)-1,2,3,4,10,14b-hexahydrodibenzo [c,f]pyrazino[1,2-a]azepine p-toluenesulphonate], in [19], the “Effect on KCl” value is “- (no effect)”. Further, the “Effect on Carbachol” value in series [1] was “- (no effect)”. The minimal effective concentration in series [2] is 0.01 µM; in series [21] (Rattus norvegicus, read-out: Concentration relaxing the isolated rat uterus), not below 1 µg/mL. Besides, the “Effect on Histamine” value in [2] is “++”. Moreover, the minimal effective dose in series [4] (rat, read-out: Intravenous dose causing rises in arterial blood pressure) is not below 0.1 mg/kg; in [6], not below 0.1 mg/kg; in [13], 0.01 mg/kg. Further, the “Effects of histamine (depressor) in cats” value in [9] is listed as “reduced”. The “Effects of the ganglion stimulant McNeil -A-343” value in [20] is recorded as “reduced”.

For the molecule `NC(=S)N1CCN2c3ccccc3Cc3ccccc3C2C1` (stereo not shown) [Example 4, 2-Thiocarboxamido-1,2,3,4,10,14b-hexahydrodibenzo [c,f]pyrazino[1,2-a]azepine], the “Effect on KCl” value in [19] was “- (no effect)”. Also, the “Effect on Carbachol” value in series [1] is given as “- (no effect)”. The minimal effective concentration in series [2] lay within 0.01 to 0.1 µM. In addition, the “Effect on Histamine” value in series [2] is on record as “++”. Besides, the minimal effective dose in series [6] was not below 0.3 mg/kg; in series [8] (Rattus norvegicus, intravenous, read-out: Intravenous dose reducing the depressor effects of histamine) it was not below 0.3 mg/kg; in series [13], not below 0.01 mg/kg. Further, the “Effects of histamine (depressor) in cats” value in series [9] is on record as “reduced”. Besides, in series [21], the “Concentration reducing contractions of the isolated rat uterus caused by 5-hydroxytryptamine or high potassium concentrations” value was not below 0.1 µg/mL. In addition, the Anti-spasmodic action result in series [21] (0.1 μg/ml or greater) is “anti-spasmodic action”. In addition, in series [22], the “Effects on arterial blood pressure and heart rate compared with the compound of Example 2” value is “smaller effects”.
